Our source for the Kd and Km values is article PMC3735840 (ACS chemical biology, 2013).

Series [1] concerns the target enzyme I (EI) (Escherichia coli, UniProt P08839). Briefly: NMR chemical shift titration. The format is binding.
The target in series [2] is enzyme I (EI) (Escherichia coli, UniProt P08839, R465A). The series can be described thus: NMR chemical shift titration. The format is binding.
The next series deals with C=C(OP(=O)(O)O)C(=O)O. Briefly: steady-state enzyme kinetics of the R465A EIC mutant with PEP. The following applies: Mg2+ active site of the C-terminal domain. The format is biochemical, Escherichia coli.

For `O=C(O)CCC(=O)C(=O)O` [αKG, α-ketoglutarate], the Kd on enzyme I (EI) [1] is approximately 2.2 mM; at enzyme I (EI) [2], approximately 6.7 mM.

As for “enzyme I (EI) (Escherichia coli K-12; R465A)”, the Km in the series on C=C(OP(=O)(O)O)C(=O)O was found to be 1600 ± 400 µM.

For orientation: Kd means the constant that tells how readily two partners part at equilibrium. As usually defined, the Km is the substrate concentration at which the rate is half of its maximum.
